Experimental data taken from patent US9335332B2, “Nicotinamide phosphoribosyltransferase (NMPRTase) inhibitor for glioma therapy” (COUNCIL OF SCIENTIFIC AND INDUSTRIAL RESEARCH, priority 2010, dated 2016).

Assays:
NMPRTase [1] = target: T1, NMPRTase (Homo sapiens, UniProt P43490); assay: NMPRTase assay: conversion of 14[C]-nicotinamide to 14[C]-NAD by U87 cell extract; format: biochemical; conditions: 14[C]-NAD formed, FIG. 2C, 3A and 3B
T1 construct: To prepare cytoplasmic extract, as source of NMPRTase, logarithmically growing U87 glioblastoma cells were collected; endogenous in cells; host or cells: U87 glioblastoma cells (cytoplasmic extract)
T1 sequence (P43490 whole entry): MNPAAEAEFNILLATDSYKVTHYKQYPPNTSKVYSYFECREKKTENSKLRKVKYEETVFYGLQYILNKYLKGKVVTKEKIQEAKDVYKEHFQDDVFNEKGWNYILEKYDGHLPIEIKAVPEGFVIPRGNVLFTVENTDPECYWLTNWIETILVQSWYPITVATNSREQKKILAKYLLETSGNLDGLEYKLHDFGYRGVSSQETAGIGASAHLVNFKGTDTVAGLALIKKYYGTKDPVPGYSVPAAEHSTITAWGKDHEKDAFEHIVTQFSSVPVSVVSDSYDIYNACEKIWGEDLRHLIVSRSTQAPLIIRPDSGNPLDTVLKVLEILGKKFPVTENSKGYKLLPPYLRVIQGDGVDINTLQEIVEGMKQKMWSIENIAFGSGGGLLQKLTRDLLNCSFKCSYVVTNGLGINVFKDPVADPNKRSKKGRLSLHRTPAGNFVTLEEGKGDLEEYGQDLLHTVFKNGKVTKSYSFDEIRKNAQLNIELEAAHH
Protocol: In accordance with the inventive steps, the measurement of NMPRTase activity was carried. To prepare cytoplasmic extract, as source of NMPRTase, logarithmically growing U87 glioblastoma cells were collected by centrifugation and washed three times with Ca^2+, Mg^2+ free PBS. The cells pellet (2 to 3×10^7 cells) was suspended and lysed in 1 mL of 0.01 M NaH2PO4 (pH 7.4) by one round of freezing and slow thawing. The clear supernatant was recovered on ice after centrifugation at 23,000×g at 0° C. for 90 mins. […] of 1% protamine sulfate were added per ml of supernatant and incubated for 15 min on ice, followed by centrifugation at 23,000×g at 0° C. for 30 mins. The final supernatant was stored in small aliquots at −80° C. The NMPRTase activity was determined in 0.5 ml of reaction solution consisting of 5 mM MgCl2, 2 mM ATP, 0.5 mM phosphoribosyl PPI (pyrophosphate), 0.1 mM 14[C]-nicotinamide (specific activity: 50 mCi/mmol; American Radiolabeled Chemicals, Inc.) and 50 mM Tris (pH 8.8) at 37° C. […] The precipitate was removed by centrifugation at 2500×g at 4° C. for 10 min and the supernatant was stored at −20° C. The 14[C]-labeled components in the cell extracts were separated and identified using thin-layer chromatography (cellulose/1 M ammonium sulphate:ethanol (3:7). The chromatograms were run and exposed to imaging plates (Fuji) read using Phosphoimger (Fuji) the 14[C]-labeled NAD was quantified using Alpha Innotec software.
In accordance with the inventive steps, selected compounds were tested for inhibition of NMPRTase activity. Measurement of the ability of NMPRTase to convert 14[C]-nicotinamide to 14[C]-NAD was carried out. Most of the glioblastoma tissues have elevated levels of transcript and protein of PBEF1/NMPRTase. To prepare NMPRTase enzyme, firstly a panel of glioma derived cell lines was tested for NMPRTase transcript and protein levels.

[2] = system: glioma derived cell line U87; assay: MTT viability assay, U87 cells; format: cell-based; conditions: Homo sapiens, U-87 MG, MTT at 48 hrs after addition of compounds
Protocol: Viability was measured by MTT assay at 48 hrs after addition of indicated compounds to U87 cells. The assays were carried out in triplicates and the mean value for each time point was used to generate the graph.
In accordance with the inventive steps, MTT assay was performed (Das, S.; El-Deiry, W. S.; Somasundaram, K. Efficient growth inhibition of HPV 16 E6-expressing cells by an adenovirus-expressing p53 homologue p73beta. Oncogene 2003, 22, 8394-402). A total of 1.5×10^3 cells/well were plated in a 96-well plate. After 24 h of plating, the cells were treated with indicated amounts of compounds. A measure of 20 μL (5 mg/mL) of MTT was added to each well 48 hrs after the addition of the compounds. MTT is a tetrazolium salt that is converted by living cells into purple formazan crystals. The medium was removed from the wells 3 hrs after MTT addition and 200 μL of DMSO (Dimethyl sulfoxide) was added to dissolve the formazan crystals, and then the absorbance was measured at 550 nm in an ELISA reader.
In accordance with the inventive steps, to correlate the NMPRTase inhibition property with cell growth inhibition, the ability of these compounds to inhibit the growth of a glioma derived cell line U87 was tested, which has elevated levels of PBEF1.

NMPRTase [3] = target: T1, NMPRTase; conditions: reference compounds, Table 1A; cited from earlier work

Inhibition of NMPRTase activity (NMPRTase [1])	IC50 [2]	Structure (SMILES)	Biochemical energy of binding (NMPRTase [3])
	> 500 µM	CC(=O)c1cc(-n2nc3ccccc3n2)c(O)c(-n2nc3ccccc3n2)c1O [Compound 3, 1,[3,5-Di(2H-1,2,3-benzotriazol-2-yl)-2,4-dihydroxyphenyl]ethan-1-one]	
inhibited NMPRTase activity	325 µM	Nc1c(-c2ccc3ccccc3n2)c2ccc([N+](=O)[O-])cc2c(=O)n1Cc1ccccc1 [Compound 5, 3-amino-2-benzyl-7-nitro-4-(2-quinolyl)-1,2-dihydroisoquinolin-1-one]	
	> 500 µM	Cc1nn(-c2ccccc2)nc1CNC(=O)C1=Cc2ccccc2OC1 [Compound 6, N-[(5-methyl-2-phenyl-2H-1,2,3-triazol-4-yl)methyl]-2H-chromene-3-carboxamide]	
inhibited efficiently	170 µM	O=C(/C=C/c1cccnc1)NCCCCC1CCN(C(=O)c2ccccc2)CC1 [FK866, reference compound]	-9.25 kcal/mol
	> 500 µM	O=C(O)c1cccnc1 [Niacin, reference compound]	

More lines, now with the values behind:

Structure (SMILES)	Inhibition of NMPRTase activity (NMPRTase [1])	IC50 [2]	Biochemical energy of binding (NMPRTase [3])
O=C1c2cc(S(=O)(=O)[O-])ccc2-c2ccc(S(=O)(=O)[O-])cc21.[K+].[K+] [Compound 1, Dipotassium 9-oxo-9H-fluorene-2,7-disulfonate]	did not inhibit NMPRTase activity	335 µM	
CCOC(=O)c1nn(-c2ccccc2)c(=O)c2c(N)c(C#N)c(-c3ccco3)cc12 [Compound 2, Ethyl-5-amino-6-cyano-7-(2-furyl)-4-oxo-3-phenyl-3,4-dihydro-1-phthalazinecarboxylate]		> 500 µM	
CC12OC(c3ccccc3)=CC(c3ccccc3)=C1C(c1ccccc1)=CC2=O (centres unmarked) [Compound 4, 7a-methyl-2,4,5-triphenyl-7,7a-dihydrocyclopenta[b]pyran-7-one]	inhibited NMPRTase activity	> 500 µM	
NC(=O)c1cccnc1 [Nicotinamide]		> 500 µM	
